Data reported in ChEMBL document CHEMBL4715706, “Discovery of Benzotriazolo[4,3-d][1,4]diazepines as Orally Active Inhibitors of BET Bromodomains” (ACS Med Chem Lett, 2016).

System: not listed separately
Experiment: Protein binding in rat plasma
Assay type: ADME, cell-free
Conditions: read-out: PPB (converted)

SMILES	fraction unbound
Cc1noc2c1-c1ccc(-c3cnn(CC(N)=O)c3)cc1N(c1ccc(C#N)cc1)CC2C (stereo not given)	0.03
Cc1noc2c1-c1ccc(-c3ccc(N)nc3)cc1N(c1ccc(C#N)cc1)CC2	0.01
Cc1nnc2n1-c1ccc(-c3ccc(N)nc3)cc1N(c1ccc(Cl)cc1)CC2C (stereo not given)	0.03
Cc1noc2c1-c1ccc(-c3ccc(=O)n(C)c3)cc1N(c1ccc(C#N)cc1)CC2C (stereo not given)	0.03
Cc1nnc2n1-c1ccc(-c3cnn(C)c3)cc1N(c1ccc(Cl)cc1)CC2	0.05
Cc1nnc2n1-c1ccccc1N(c1ccc(Cl)cc1)CC2	0.05
Cc1noc2c1-c1ccc(-c3ccc(N)nc3)cc1N(c1ccc(C#N)cc1)CC2C (stereo not given)	0.02
Cc1noc2c1-c1ccccc1N(c1ccc(C#N)cc1)CC2	< 0.01
Cc1nnc2n1-c1ccccc1N(c1ccc(Cl)cc1)CC2C (stereo not given)	0.04
Cc1nnc2n1-c1ccccc1N(c1ccc(Cl)cc1)C(C)C2 (stereo not given)	0.03

System: not listed separately
Experiment: Protein binding in mouse plasma
Conditions: not given

SMILES	fraction unbound
Cc1noc2c1-c1ccc(-c3cnn(CC(N)=O)c3)cc1N(c1ccc(C#N)cc1)CC2C (stereo not given)	0.04
Cc1noc2c1-c1ccc(-c3ccc(N)nc3)cc1N(c1ccc(C#N)cc1)CC2	< 0.01
Cc1nnc2n1-c1ccc(-c3ccc(N)nc3)cc1N(c1ccc(Cl)cc1)CC2C (stereo not given)	0.02
Cc1noc2c1-c1ccc(-c3ccc(=O)n(C)c3)cc1N(c1ccc(C#N)cc1)CC2C (stereo not given)	0.01
Cc1nnc2n1-c1ccc(-c3cnn(C)c3)cc1N(c1ccc(Cl)cc1)CC2	0.03
Cc1nnc2n1-c1ccccc1N(c1ccc(Cl)cc1)CC2	0.07
Cc1noc2c1-c1ccc(-c3ccc(N)nc3)cc1N(c1ccc(C#N)cc1)CC2C (stereo not given)	0.01
Cc1noc2c1-c1ccccc1N(c1ccc(C#N)cc1)CC2	< 0.01
Cc1nnc2n1-c1ccccc1N(c1ccc(Cl)cc1)CC2C (stereo not given)	0.04

System: not listed separately
Experiment: Intrinsic clearance in human liver microsomes
Conditions: not given

SMILES	microsomal CLint [µL/min/mg]
Cc1noc2c1-c1ccc(-c3cnn(CC(N)=O)c3)cc1N(c1ccc(C#N)cc1)CC2C (stereo not given)	33
Cc1noc2c1-c1ccc(-c3ccc(N)nc3)cc1N(c1ccc(C#N)cc1)CC2	86
Cc1nnc2n1-c1ccc(-c3ccc(N)nc3)cc1N(c1ccc(Cl)cc1)CC2C (stereo not given)	6.4
Cc1noc2c1-c1ccc(-c3ccc(=O)n(C)c3)cc1N(c1ccc(C#N)cc1)CC2C (stereo not given)	52
Cc1nnc2n1-c1ccc(-c3cnn(C)c3)cc1N(c1ccc(Cl)cc1)CC2	14
Cc1nnc2n1-c1ccccc1N(c1ccc(Cl)cc1)CC2	154
Cc1noc2c1-c1ccc(-c3ccc(N)nc3)cc1N(c1ccc(C#N)cc1)CC2C (stereo not given)	62
Cc1noc2c1-c1ccccc1N(c1ccc(C#N)cc1)CC2	17
Cc1nnc2n1-c1ccccc1N(c1ccc(Cl)cc1)CC2C (stereo not given)	24
Cc1nnc2n1-c1ccccc1N(c1ccc(Cl)cc1)C(C)C2 (stereo not given)	25

System: not listed separately
Experiment: Protein binding in human plasma
Assay type: ADME, cell-free
Conditions: read-out: PPB (converted)

SMILES	fraction unbound
Cc1noc2c1-c1ccc(-c3cnn(CC(N)=O)c3)cc1N(c1ccc(C#N)cc1)CC2C (stereo not given)	0.01
Cc1noc2c1-c1ccc(-c3ccc(N)nc3)cc1N(c1ccc(C#N)cc1)CC2	< 0.01
Cc1nnc2n1-c1ccc(-c3ccc(N)nc3)cc1N(c1ccc(Cl)cc1)CC2C (stereo not given)	0.02
Cc1noc2c1-c1ccc(-c3ccc(=O)n(C)c3)cc1N(c1ccc(C#N)cc1)CC2C (stereo not given)	0.02
Cc1nnc2n1-c1ccc(-c3cnn(C)c3)cc1N(c1ccc(Cl)cc1)CC2	0.04
Cc1nnc2n1-c1ccccc1N(c1ccc(Cl)cc1)CC2	0.05
Cc1noc2c1-c1ccc(-c3ccc(N)nc3)cc1N(c1ccc(C#N)cc1)CC2C (stereo not given)	< 0.01
Cc1noc2c1-c1ccccc1N(c1ccc(C#N)cc1)CC2	< 0.01
Cc1nnc2n1-c1ccccc1N(c1ccc(Cl)cc1)CC2C (stereo not given)	0.03
Cc1nnc2n1-c1ccccc1N(c1ccc(Cl)cc1)C(C)C2 (stereo not given)	0.02

System: not listed separately
Experiment: Intrinsic clearance in dog liver microsomes
Conditions: not given

SMILES	microsomal CLint [µL/min/mg]
Cc1noc2c1-c1ccc(-c3cnn(CC(N)=O)c3)cc1N(c1ccc(C#N)cc1)CC2C (stereo not given)	22
Cc1noc2c1-c1ccc(-c3ccc(N)nc3)cc1N(c1ccc(C#N)cc1)CC2	165
Cc1nnc2n1-c1ccc(-c3ccc(N)nc3)cc1N(c1ccc(Cl)cc1)CC2C (stereo not given)	94
Cc1noc2c1-c1ccc(-c3ccc(=O)n(C)c3)cc1N(c1ccc(C#N)cc1)CC2C (stereo not given)	65
Cc1nnc2n1-c1ccc(-c3cnn(C)c3)cc1N(c1ccc(Cl)cc1)CC2	91
Cc1nnc2n1-c1ccccc1N(c1ccc(Cl)cc1)CC2	390
Cc1noc2c1-c1ccc(-c3ccc(N)nc3)cc1N(c1ccc(C#N)cc1)CC2C (stereo not given)	240
Cc1noc2c1-c1ccccc1N(c1ccc(C#N)cc1)CC2	18
Cc1nnc2n1-c1ccccc1N(c1ccc(Cl)cc1)CC2C (stereo not given)	83

System: not listed separately
Experiment: Protein binding in dog plasma
Conditions: not given

SMILES	fraction unbound
Cc1noc2c1-c1ccc(-c3cnn(CC(N)=O)c3)cc1N(c1ccc(C#N)cc1)CC2C (stereo not given)	0.01
Cc1noc2c1-c1ccc(-c3ccc(N)nc3)cc1N(c1ccc(C#N)cc1)CC2	< 0.01
Cc1nnc2n1-c1ccc(-c3ccc(N)nc3)cc1N(c1ccc(Cl)cc1)CC2C (stereo not given)	0.03
Cc1noc2c1-c1ccc(-c3ccc(=O)n(C)c3)cc1N(c1ccc(C#N)cc1)CC2C (stereo not given)	0.02
Cc1nnc2n1-c1ccc(-c3cnn(C)c3)cc1N(c1ccc(Cl)cc1)CC2	0.04
Cc1nnc2n1-c1ccccc1N(c1ccc(Cl)cc1)CC2	0.05
Cc1noc2c1-c1ccc(-c3ccc(N)nc3)cc1N(c1ccc(C#N)cc1)CC2C (stereo not given)	< 0.01
Cc1noc2c1-c1ccccc1N(c1ccc(C#N)cc1)CC2	< 0.01
Cc1nnc2n1-c1ccccc1N(c1ccc(Cl)cc1)CC2C (stereo not given)	0.05

System: not listed separately
Experiment: Inhibition of BET in human THP-1 cells assessed as suppression of LPS-induced IL-6 release measured after 16 hrs by chemiluminescence ELISA
Assay type: cell-based
Conditions: THP-1, 16 h

SMILES	EC50 [nM]
Cc1noc2c1-c1ccc(-c3cnn(CC(N)=O)c3)cc1N(c1ccc(C#N)cc1)CC2C (stereo not given)	67
Cc1noc2c1-c1ccc(-c3ccc(N)nc3)cc1N(c1ccc(C#N)cc1)CC2	380
Cc1nnc2n1-c1ccc(-c3ccc(N)nc3)cc1N(c1ccc(Cl)cc1)CC2C (stereo not given)	16
Cc1noc2c1-c1ccc(-c3ccc(=O)n(C)c3)cc1N(c1ccc(C#N)cc1)CC2C (stereo not given)	94
Cc1nnc2n1-c1ccc(-c3cnn(C)c3)cc1N(c1ccc(Cl)cc1)CC2	130
Cc1nnc2n1-c1ccccc1N(c1ccc(Cl)cc1)CC2	2300
Cc1noc2c1-c1ccc(-c3ccc(N)nc3)cc1N(c1ccc(C#N)cc1)CC2C (stereo not given)	78
Cc1noc2c1-c1ccccc1N(c1ccc(C#N)cc1)CC2	4600
Cc1nnc2n1-c1ccccc1N(c1ccc(Cl)cc1)CC2C (stereo not given)	290
Cc1nnc2n1-c1ccccc1N(c1ccc(Cl)cc1)C(C)C2 (stereo not given)	3100

System: not listed separately
Experiment: Intrinsic clearance in rat liver microsomes
Conditions: not given

SMILES	microsomal CLint [µL/min/mg]
Cc1noc2c1-c1ccc(-c3cnn(CC(N)=O)c3)cc1N(c1ccc(C#N)cc1)CC2C (stereo not given)	62
Cc1noc2c1-c1ccc(-c3ccc(N)nc3)cc1N(c1ccc(C#N)cc1)CC2	195
Cc1nnc2n1-c1ccc(-c3ccc(N)nc3)cc1N(c1ccc(Cl)cc1)CC2C (stereo not given)	34
Cc1noc2c1-c1ccc(-c3ccc(=O)n(C)c3)cc1N(c1ccc(C#N)cc1)CC2C (stereo not given)	71
Cc1nnc2n1-c1ccc(-c3cnn(C)c3)cc1N(c1ccc(Cl)cc1)CC2	154
Cc1nnc2n1-c1ccccc1N(c1ccc(Cl)cc1)CC2	126
Cc1noc2c1-c1ccc(-c3ccc(N)nc3)cc1N(c1ccc(C#N)cc1)CC2C (stereo not given)	210
Cc1noc2c1-c1ccccc1N(c1ccc(C#N)cc1)CC2	24
Cc1nnc2n1-c1ccccc1N(c1ccc(Cl)cc1)CC2C (stereo not given)	25
Cc1nnc2n1-c1ccccc1N(c1ccc(Cl)cc1)C(C)C2 (stereo not given)	65

Molecular target: Bromodomain-containing protein 4 (Homo sapiens, UniProt O60885)
Conditions: not given

SMILES	IC50 [nM]
Cc1noc2c1-c1ccc(-c3cnn(CC(N)=O)c3)cc1N(c1ccc(C#N)cc1)CC2C (stereo not given)	31
Cc1noc2c1-c1ccc(-c3ccc(N)nc3)cc1N(c1ccc(C#N)cc1)CC2	64
Cc1nnc2n1-c1ccc(-c3ccc(N)nc3)cc1N(c1ccc(Cl)cc1)CC2C (stereo not given)	26
Cc1noc2c1-c1ccc(-c3ccc(=O)n(C)c3)cc1N(c1ccc(C#N)cc1)CC2C (stereo not given)	32
Cc1nnc2n1-c1ccc(-c3cnn(C)c3)cc1N(c1ccc(Cl)cc1)CC2	44
Cc1nnc2n1-c1ccccc1N(c1ccc(Cl)cc1)CC2	1560
Cc1noc2c1-c1ccc(-c3ccc(N)nc3)cc1N(c1ccc(C#N)cc1)CC2C (stereo not given)	36
Cc1noc2c1-c1ccccc1N(c1ccc(C#N)cc1)CC2	550
Cc1nnc2n1-c1ccccc1N(c1ccc(Cl)cc1)CC2C (stereo not given)	350
Cc1nnc2n1-c1ccccc1N(c1ccc(Cl)cc1)C(C)C2 (stereo not given)	1200

System: not listed separately
Experiment: Intrinsic clearance in mouse liver microsomes
Conditions: not given

SMILES	microsomal CLint [µL/min/mg]
Cc1noc2c1-c1ccc(-c3cnn(CC(N)=O)c3)cc1N(c1ccc(C#N)cc1)CC2C (stereo not given)	44
Cc1noc2c1-c1ccc(-c3ccc(N)nc3)cc1N(c1ccc(C#N)cc1)CC2	101
Cc1noc2c1-c1ccc(-c3ccc(=O)n(C)c3)cc1N(c1ccc(C#N)cc1)CC2C (stereo not given)	64
Cc1nnc2n1-c1ccc(-c3cnn(C)c3)cc1N(c1ccc(Cl)cc1)CC2	77
Cc1nnc2n1-c1ccccc1N(c1ccc(Cl)cc1)CC2	500
Cc1noc2c1-c1ccc(-c3ccc(N)nc3)cc1N(c1ccc(C#N)cc1)CC2C (stereo not given)	44
Cc1noc2c1-c1ccccc1N(c1ccc(C#N)cc1)CC2	22
Cc1nnc2n1-c1ccccc1N(c1ccc(Cl)cc1)CC2C (stereo not given)	110
